Laboratory results as given in the NIST ThermoML archive (doi:10.1021/je0498560).

Assay: xn = mol fraction of the nth substance listed
Settings: Liquid

OCC(F)(F)F [2,2,2-trifluoroethanol] + O=C=O
Settings	molar volume [m3/mol]
298 K, x2 = 0.132	6.39e-05
298 K, x2 = 0.225	6.3e-05
298 K, x2 = 0.358	5.95e-05
298 K, x2 = 0.48	5.81e-05
298 K, x2 = 0.599	5.71e-05
298 K, x2 = 0.704	5.51e-05
298 K, x2 = 0.749	5.51e-05
298 K, x2 = 0.795	5.43e-05
298 K, x2 = 0.842	5.49e-05
298 K, x2 = 0.888	5.48e-05
298 K, x2 = 0.927	5.5e-05
313 K, x2 = 0.16	6.1e-05
313 K, x2 = 0.23	6.13e-05
313 K, x2 = 0.337	6.06e-05
313 K, x2 = 0.424	5.94e-05
313 K, x2 = 0.517	5.84e-05
313 K, x2 = 0.628	5.51e-05
313 K, x2 = 0.715	5.3e-05
313 K, x2 = 0.773	5.34e-05
313 K, x2 = 0.849	5.65e-05
313 K, x2 = 0.901	5.98e-05

CN1CCCC1=O [N-methylpyrrolidone] + O=C=O
313 K
Settings	molar volume [m3/mol]
x2 = 0.104	8.91e-05
x2 = 0.19	8.48e-05
x2 = 0.242	8.26e-05
x2 = 0.311	7.9e-05
x2 = 0.374	7.57e-05
x2 = 0.437	7.32e-05
x2 = 0.499	6.98e-05
x2 = 0.565	6.66e-05
x2 = 0.629	6.23e-05
x2 = 0.725	5.67e-05
x2 = 0.816	5.34e-05

CC(C)=O [acetone] + O=C=O
323 K
Settings	molar volume [m3/mol]
x2 = 0.056	7.37e-05
x2 = 0.14	7.18e-05
x2 = 0.251	6.75e-05
x2 = 0.335	6.67e-05
x2 = 0.432	6.42e-05
x2 = 0.53	6.23e-05
x2 = 0.603	6.1e-05
x2 = 0.648	6.01e-05
x2 = 0.695	5.71e-05
x2 = 0.73	5.66e-05
x2 = 0.76	5.74e-05
x2 = 0.787	5.81e-05

CC#N [acetonitrile] + O=C=O
313 K
Settings	molar volume [m3/mol]
x2 = 0.044	5.19e-05
x2 = 0.073	5.25e-05
x2 = 0.093	5.33e-05
x2 = 0.168	5.24e-05
x2 = 0.241	5.11e-05
x2 = 0.312	5.1e-05
x2 = 0.381	5.18e-05
x2 = 0.449	5.07e-05
x2 = 0.523	4.98e-05
x2 = 0.598	4.96e-05
x2 = 0.688	4.9e-05
x2 = 0.77	4.87e-05
x2 = 0.834	5.08e-05

ClCCl [dichloromethane] + O=C=O
313 K
Settings	molar volume [m3/mol]
x2 = 0.044	6.51e-05
x2 = 0.114	6.32e-05
x2 = 0.188	6.24e-05
x2 = 0.269	6.13e-05
x2 = 0.444	5.87e-05
x2 = 0.533	5.74e-05
x2 = 0.644	5.64e-05
x2 = 0.738	5.32e-05
x2 = 0.83	5.42e-05
x2 = 0.859	5.82e-05
